Like-named read-outs stand apart in the source and are kept apart here.
Key:
[1] = tested on: M. tuberculosis Erdman; details: cited from earlier work
[2] = tested on: M. tuberculosis H37Rv; details: cited from earlier work
[3] = metabolic stability against liver microsomes; type: in vitro ADME; details: 4 h at 37 °C, LC–MS/MS
[4] = metabolic stability against liver microsomes; type: in vitro ADME, mouse; details: murine microsomes, 4 h at 37 °C, LC–MS/MS
[5] = metabolic stability against liver microsomes; type: in vitro ADME; details: 4 h at 37 °C, LC–MS/MS; remark: listed apart in the source

| Molecule | log10 CFU Spleen ([1]; route IP) [n = 5 log10 CFU] | Δ log10 CFU Lungs (test vs control group means) ([1]; route IP) [log10 CFU] | Δ log10 CFU Spleen (test vs control group means) ([1]; route IP) [log10 CFU] | log10 CFU Spleen ([1]; route PO) [n = 5 log10 CFU] | Δ log10 CFU Lungs (test vs control group means) ([1]; route PO) [log10 CFU] | Δ log10 CFU Spleen (test vs control group means) ([1]; route PO) [log10 CFU] | log10 CFU Lungs ([1]; route PO, test compounds 50 mg/kg b.i.d., day 5-15 post infection) [n = 5 log10 CFU] | MIC (μg/mL) H37Rv [2] [µg/mL] | % metabolic clearance rat [3] [%] | % metabolic clearance mouse [4] [%] | % metabolic clearance human [5] [%] |
| --- | --- | --- | --- | --- | --- | --- | --- | --- | --- | --- | --- |
| NNC(=O)c1ccncc1 [INH, isoniazid] | 0 ± 0 | −6.57 | −4.96 | 0 ± 0 | −6.31 | −3.89 | 0 ± 0 |  |  |  |  |
| 2-cyclohexyl-5-dimethylamino-6-(4-trifluorimethoxy)benzamido-1,3-benzoxazole [Compound 12] |  |  |  |  |  |  |  | 6.25 | 22 | 71 | 56 |

From article PMC5445929 (Journal of fluorine chemistry, 2016)
